Data: patent publication US11891365B2, “3-alkyl-4-amido-bicyclic [4,5,0] hydroxamic acids as HDAC inhibitors” (Valo Health, Inc., priority 2015, dated 2024)

Molecular target: T1, Full length human recombinant HDAC6 protein (Homo sapiens, UniProt Q9UBN7)
T1 sequence (Q9UBN7 1-1215): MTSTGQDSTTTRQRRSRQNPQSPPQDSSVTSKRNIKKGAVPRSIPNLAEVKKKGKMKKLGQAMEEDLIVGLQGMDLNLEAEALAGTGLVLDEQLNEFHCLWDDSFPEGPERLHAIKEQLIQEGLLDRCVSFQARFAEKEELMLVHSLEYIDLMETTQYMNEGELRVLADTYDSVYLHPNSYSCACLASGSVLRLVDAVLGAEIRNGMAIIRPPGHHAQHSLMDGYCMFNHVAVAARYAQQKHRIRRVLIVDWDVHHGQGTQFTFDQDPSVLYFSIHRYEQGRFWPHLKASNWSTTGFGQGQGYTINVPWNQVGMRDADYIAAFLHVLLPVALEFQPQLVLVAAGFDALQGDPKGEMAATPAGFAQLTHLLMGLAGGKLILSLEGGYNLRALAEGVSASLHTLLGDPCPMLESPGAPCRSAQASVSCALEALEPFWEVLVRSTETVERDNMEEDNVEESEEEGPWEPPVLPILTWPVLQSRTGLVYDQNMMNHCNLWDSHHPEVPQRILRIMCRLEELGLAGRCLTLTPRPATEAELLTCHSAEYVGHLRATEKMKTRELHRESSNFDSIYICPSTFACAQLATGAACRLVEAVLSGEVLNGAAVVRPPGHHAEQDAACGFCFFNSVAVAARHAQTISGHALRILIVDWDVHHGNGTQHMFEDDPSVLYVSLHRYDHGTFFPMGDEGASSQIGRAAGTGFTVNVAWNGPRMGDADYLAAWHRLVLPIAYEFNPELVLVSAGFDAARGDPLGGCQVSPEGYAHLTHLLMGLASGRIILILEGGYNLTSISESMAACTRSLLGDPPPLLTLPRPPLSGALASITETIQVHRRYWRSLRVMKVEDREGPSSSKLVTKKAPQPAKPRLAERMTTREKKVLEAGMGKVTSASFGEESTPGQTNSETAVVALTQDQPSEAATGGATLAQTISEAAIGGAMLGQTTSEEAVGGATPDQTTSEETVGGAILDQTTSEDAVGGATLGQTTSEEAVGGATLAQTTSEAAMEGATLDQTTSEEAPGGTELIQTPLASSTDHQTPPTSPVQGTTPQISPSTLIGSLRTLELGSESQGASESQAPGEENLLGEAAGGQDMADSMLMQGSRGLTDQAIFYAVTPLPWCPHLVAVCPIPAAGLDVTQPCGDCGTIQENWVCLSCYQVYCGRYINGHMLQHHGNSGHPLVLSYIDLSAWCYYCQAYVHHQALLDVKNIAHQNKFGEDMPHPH
Assay: In vitro histone deacetylase assay: enzymatic HDAC6 electrophoretic mobility shift assay
Type: biochemical
Conditions: 1 nM enzyme, 2 μM peptide substrate RHKK(Ac)-NH2, 25° C., 12 concentrations; read-out: Inhibitory Concentration (IC50) Values against HDAC6, Activity Range

SMILES | IC50 [µM]
COCC(C)(C)C(=O)N1CCOc2cc(C(=O)NO)ccc2C1 [N-hydroxy-4-(3-methoxy-2,2-dimethylpropanoyl)-2,3,4,5-tetrahydrobenzo[f][1,4]oxazepine-8-carboxamide] | ≤ 0.1
C[C@H]1c2cc(C(=O)NO)ccc2OCCN1C(=O)C1(C)CCC1 [(S)-N-hydroxy-5-methyl-4-(1-methylcyclobutane-1-carbonyl)-2,3,4,5-tetrahydrobenzo[f][1,4]oxazepine-7-carboxamide] | 0.1 to 0.5
O=C(NO)c1ccc2c(c1)OCCN(C(=O)C1(Cc3ccccc3)CC1)C2 [4-(1-benzylcyclopropane-1-carbonyl)-N-hydroxy-2,3,4,5-tetrahydrobenzo[f][1,4]oxazepine-8-carboxamide] | ≤ 0.1
C[C@H]1COc2cc(C(=O)NO)ccc2CN1C(=O)C1(C)CCCO1 (stereo partly drawn) [(3S)-N-hydroxy-3-methyl-4-(2-methyltetrahydrofuran-2-carbonyl)-2,3,4,5-tetrahydrobenzo[f][1,4]oxazepine-8-carboxamide] | ≤ 0.1
CC(C)[C@@H]1CN(C(=O)C2(C)CCC2)Cc2ccc(C(=O)NO)cc2O1 [(R)-N-hydroxy-2-isopropyl-4-(1-methylcyclobutane-1-carbonyl)-2,3,4,5-tetrahydrobenzo[f][1,4]oxazepine-8-carboxamide] | 0.1 to 0.5
C[C@@H]1c2cc(C(=O)NO)ccc2OCCN1C(=O)C1(C)CCC1 [(R)-N-hydroxy-5-methyl-4-(1-methylcyclobutane-1-carbonyl)-2,3,4,5-tetrahydrobenzo[f][1,4]oxazepine-7-carboxamide] | ≤ 0.1
COc1cccc(C2(C(=O)N3CCOc4cc(C(=O)NO)ccc4C3)CC2)c1 [N-hydroxy-4-(1-(3-methoxyphenyl)cyclopropane-1-carbonyl)-2,3,4,5-tetrahydrobenzo[f][1,4]oxazepine-8-carboxamide] | ≤ 0.1
Cn1cccc1C(=O)N1CCOc2cc(C(=O)NO)ccc2C1 [N-hydroxy-4-(1-methyl-1H-pyrrole-2-carbonyl)-2,3,4,5-tetrahydrobenzo[f][1,4]oxazepine-8-carboxamide] | ≤ 0.1
O=C(NO)c1ccc2c(c1)OCCN(C(=O)C1(Oc3ccccc3)CC1)C2 [N-hydroxy-4-(1-phenoxycyclopropane-1-carbonyl)-2,3,4,5-tetrahydrobenzo[f][1,4]oxazepine-8-carboxamide] | 0.1 to 0.5
O=C(NO)c1ccc2c(c1)O[C@@H](c1ccccc1)CN(C(=O)C1CCOCC1)C2 [(S)-N-hydroxy-2-phenyl-4-(tetrahydro-2H-pyran-4-carbonyl)-2,3,4,5-tetrahydrobenzo[f][1,4]oxazepine-8-carboxamide] | ≤ 0.1
CC(C)(C)OC(=O)N1CCC2(CCC(C(=O)N3CCOc4cc(C(=O)NO)ccc4C3)CC2)C1 (stereo not drawn) [tert-butyl 8-(8-(hydroxycarbamoyl)-2,3,4,5-tetrahydrobenzo[f][1,4]oxazepine-4-carbonyl)-2-azaspiro[4.5]decane-2-carboxylate] | ≤ 0.1
C[C@H]1COc2cc(C(=O)NO)ccc2CN1C(=O)C1(C)CCOCC1 [(S)-N-hydroxy-3-methyl-4-(4-methyltetrahydro-2H-pyran-4-carbonyl)-2,3,4,5-tetrahydrobenzo[f][1,4]oxazepine-8-carboxamide] | ≤ 0.1
COC1(C(=O)N2Cc3ccc(C(=O)NO)cc3OC[C@@H]2C)CCC1 [(S)-N-hydroxy-4-(1-methoxycyclobutane-1-carbonyl)-3-methyl-2,3,4,5-tetrahydrobenzo[f][1,4]oxazepine-8-carboxamide] | ≤ 0.1
C[C@H]1COc2cc(C(=O)NO)ccc2CN1C(=O)C1CCC1 [(S)-4-(cyclobutanecarbonyl)-N-hydroxy-3-methyl-2,3,4,5-tetrahydrobenzo[f][1,4]oxazepine-8-carboxamide] | ≤ 0.1
CC(=O)N1Cc2ccc(C(=O)NO)cc2O[C@H](C)C1 [(R)-4-acetyl-N-hydroxy-2-methyl-2,3,4,5-tetrahydrobenzo[f][1,4]oxazepine-8-carboxamide] | > 0.5
COC(C)(C(=O)N1CCOc2cc(C(=O)NO)ccc2C1)c1ccccc1 (stereo not drawn) [N-hydroxy-4-(2-methoxy-2-phenylpropanoyl)-2,3,4,5-tetrahydrobenzo[f][1,4]oxazepine-8-carboxamide] | 0.1 to 0.5
O=C(NO)c1ccc2c(c1)OCCN(C(=O)C1CC13CCCNC3)C2 (stereo not drawn) [N-hydroxy-4-(5-azaspiro[2.5]octane-1-carbonyl)-2,3,4,5-tetrahydrobenzo[f][1,4]oxazepine-8-carboxamide] | > 0.5

SMILES | IC50 [µM]
COCC1(C(=O)N2Cc3ccc(C(=O)NO)cc3OC[C@@H]2C)CCC1 [(S)-N-hydroxy-4-(1-(methoxymethyl)cyclobutane-1-carbonyl)-3-methyl-2,3,4,5-tetrahydrobenzo[f][1,4]oxazepine-8-carboxamide] | ≤ 0.1
O=C(NO)c1ccc2c(c1)OCCN(C(=O)CCO)C2 [N-hydroxy-4-(3-hydroxypropanoyl)-2,3,4,5-tetrahydrobenzo[f][1,4]oxazepine-8-carboxamide] | > 0.5
CC(C)[C@H]1COc2cc(C(=O)NO)ccc2CN1C(=O)CC1CCOCC1 [(S)-N-hydroxy-3-isopropyl-4-(2-(tetrahydro-2H-pyran-4-yl)acetyl)-2,3,4,5-tetrahydrobenzo[f][1,4]oxazepine-8-carboxamide] | 0.1 to 0.5
C[C@H]1COc2cc(C(=O)NO)ccc2CN1C(=O)C1CC1 [(S)-4-(cyclopropanecarbonyl)-N-hydroxy-3-methyl-2,3,4,5-tetrahydrobenzo[f][1,4]oxazepine-8-carboxamide] | ≤ 0.1
CC(=O)N1Cc2ccc(C(=O)NO)cc2O[C@@H](C)C1 [(S)-4-acetyl-N-hydroxy-2-methyl-2,3,4,5-tetrahydrobenzo[f][1,4]oxazepine-8-carboxamide] | > 0.5
C[C@H]1COc2cc(C(=O)NO)ccc2CN1C(=O)C1CC(Oc2ccccc2)C1 (single isomer, unassigned) | ≤ 0.1
C[C@H]1c2ccc(C(=O)NO)cc2OCCN1C(=O)C1(C)COC1 [(S)-N-hydroxy-5-methyl-4-(3-methyloxetane-3-carbonyl)-2,3,4,5-tetrahydrobenzo[f][1,4]oxazepine-8-carboxamide] | ≤ 0.1
CC1(C)C[C@@H]1C(=O)N1CCOc2cc(C(=O)NO)ccc2C1 [(S)-4-(2,2-dimethylcyclopropane-1-carbonyl)-N-hydroxy-2,3,4,5-tetrahydrobenzo[f][1,4]oxazepine-8-carboxamide] | 0.1 to 0.5
O=C(NO)c1ccc2c(c1)OCCN(C(=O)C(c1ccccc1)N1CCCCC1=O)C2 (stereo not drawn) [N-hydroxy-4-(2-(2-oxopiperidin-1-yl)-2-phenylacetyl)-2,3,4,5-tetrahydrobenzo[f][1,4]oxazepine-8-carboxamide] | 0.1 to 0.5
C[C@H]1c2ccc(C(=O)NO)cc2OCCN1C(=O)[C@@H]1CCOC1 [(S)-N-hydroxy-5-methyl-4-((R)-tetrahydrofuran-3-carbonyl)-2,3,4,5-tetrahydrobenzo[f][1,4]oxazepine-8-carboxamide] | ≤ 0.1
C[C@H]1COc2cc(C(=O)NO)ccc2CN1C(=O)C1(C)CCC1 [(S)-N-hydroxy-3-methyl-4-(1-methylcyclobutane-1-carbonyl)-2,3,4,5-tetrahydrobenzo[f][1,4]oxazepine-8-carboxamide] | ≤ 0.1
O=C(NO)c1ccc2c(c1)OCCN(C(=O)C1(c3ccncc3)CC1)C2 [N-hydroxy-4-(1-(pyridin-4-yl)cyclopropane-1-carbonyl)-2,3,4,5-tetrahydrobenzo[f][1,4]oxazepine-8-carboxamide] | ≤ 0.1
O=C(NO)c1ccc2c(c1)OCCN(C(=O)CN1CCS(=O)(=O)CC1)C2 [4-(2-(1,1-dioxidothiomorpholino)acetyl)-N-hydroxy-2,3,4,5-tetrahydrobenzo[f][1,4]oxazepine-8-carboxamide] | > 0.5
O=C(NO)c1ccc2c(c1)OCCN(C(=O)C1CC(F)(F)C1)C2 [4-(3,3-difluorocyclobutane-1-carbonyl)-N-hydroxy-2,3,4,5-tetrahydrobenzo[f][1,4]oxazepine-8-carboxamide] | 0.1 to 0.5
CS(=O)(=O)N1CCC(CC(=O)N2CCOc3cc(C(=O)NO)ccc3C2)CC1 [N-hydroxy-4-(2-(1-(methylsulfonyl)piperidin-4-yl)acetyl)-2,3,4,5-tetrahydrobenzo[f][1,4]oxazepine-8-carboxamide] | > 0.5
O=C(NO)c1ccc2c(c1)OCCN(C(=O)c1ccc(N3CCOCC3)cc1)C2 [N-hydroxy-4-(4-morpholinobenzoyl)-2,3,4,5-tetrahydrobenzo[f][1,4]oxazepine-8-carboxamide] | 0.1 to 0.5
